Measured values: patent publication US20240115622A1, “FORMULATION FOR THE PREVENTION AND/OR TREATMENT OF COVID-19” (priority 2022, published 2024)
Like-named read-outs stand apart in the source and are kept apart here.

Tests used:
[1] = system: human respiratory coronavirus OC43; experiment: HCT-8 cells infected with human respiratory coronavirus OC43, antiviral effect (CPE, WST-1); format: cell-based
VERO E6 cells [2] = experiment: cytotoxicity of the compounds on Vero E6 cells
porcine coronavirus PEDV = experiment: PEDV infection of Vero E6 cells, antiviral activity by CPE
VERO E6 cells [3] = system: VERO E6 cells

Row | Compound | time for which a significant effect was sustained ([1]; after 2 hours of treatment exposure) [days] | concentration with optimal effect in protecting cells from coronaviral infection ([1]; overall conclusion of the coronavirus experiments) [%] | cytotoxicity, effect of low concentration of FBS (VERO E6 cells [2]; medium supplemented with 2% FBS) | cytotoxicity (VERO E6 cells [2]; medium without FBS) | visual scores of the CPE, effect against PEDV infection (porcine coronavirus PEDV; FIG. 1, 3 days post infection, PEDV-infected Vero E6 cells, low concentrations) | low concentration with protective effect against PEDV infection (below the cytotoxic concentrations) (porcine coronavirus PEDV; Vero E6 cells, medium with 2% FBS, speculated, to be better sustained) [%] | PEDV induced cytotoxicity (porcine coronavirus PEDV; medium without FBS, high concentrations of the compound) | cytotoxicity (VERO E6 cells [3]) | cytotoxicity, effect of low concentration of FBS (VERO E6 cells [3])
1 | OC[C@@H](O)[C@H](O)[C@@H](O)CO [xylitol] | 4 | 0.5 | significantly decreased | very high | protective effects | ≤ 3 | higher |  | 
2 | propolis |  |  |  |  |  |  |  | very high | significantly decreased
